Reference: the OligoGym collection
Values joined by “and” are separate entries in the source; they are usually repeats but may differ in a detail not shown here. Equal values may be shown once. After the bases stand the sugars from the 5' end (letter, count) and the backbone: PS all phosphorothioate, else s phosphorothioate and o phosphodiester by linkage. Methylation of C is not given here. e = 2'-O-(2-methoxyethyl) (MOE); d = 2'-deoxy (DNA)

Biological target: DGAT2
Conditions: ASO

Row | Sequence | target mRNA inhibition (HepG2, 2.5 µM) | target mRNA inhibition (HepG2, 10 µM) | target mRNA inhibition (HepG2, 20 µM) | target mRNA inhibition (HepG2, 0.12 µM)
1 | ACCAGGGCCTCCATGTACAT (sugars e5 d10 e5, PS) | 30% | 32% and 50% | 48% | –
2 | GTTGCCATCATACTAGACTA (sugars e5 d10 e5, PS) | 65% | 85% | – | –
3 | AAGCCCTTGCGGTTCCGCAG (sugars e5 d10 e5, PS) | – | – | – | 67%
4 | ACTGGTCCTGCAGTTTCAGG (sugars e5 d10 e5, PS) | – | – | – | 55%
5 | GAGATGACCTGTAGCTGCTT (sugars e5 d10 e5, PS) | – | – | – | 34%
6 | CAGGACCCCGGAGTAGGCGG (sugars e2 d13 e5, PS) | – | – | – | 76%
7 | GTCCTCCTTAGCTTTAATCC (sugars e5 d10 e5, PS) | 62% | 85% | – | –
8 | GATCTCAGTCACTGACTCAC (sugars e5 d10 e5, PS) | 57% | 91% | – | –
9 | AACACTCACAGCACTTTACC (sugars e5 d10 e5, PS) | – | – | – | 4%
10 | GTCACTGACTCACAACAGCA (sugars e5 d10 e5, PS) | 58% | 92% | – | –
11 | AGAAAAAGCAACCAAAGCAC (sugars e5 d10 e5, PS) | 19% | 82% | – | –
12 | AAGCCTGGATGGTGGTTGCA (sugars e5 d10 e5, PS) | 82% and 66% | 91% and 82% | – | –
13 | TGTGTGTCTTCACCAGCTGG (sugars e5 d10 e5, PS) | 28% | 73% | 94% | 55%
14 | TCTTCACCAGCTGGATGGGA (sugars e5 d10 e5, PS) | – | – | – | 50%
15 | TTGCTTAAACAGATAAGCAC (sugars e5 d10 e5, PS) | – | – | – | 17%
16 | AAAGATATAGTTCCTGGTGG (sugars e5 d10 e5, PS) | – | – | – | 54%
17 | GGAGCTCAGAGACTCAGCCG (sugars e2 d13 e5, PS) | – | – | – | 65%
18 | ATGCCCTTGCTGTAGGACCC (sugars e5 d10 e5, PS) | 79% and 73% | 90% | – | –
19 | AGGACCCCGGAGTAGGCGGC (sugars e3 d14 e3, PS) | – | – | – | 76%
20 | ATCCAATGCACCTTGTATTA (sugars e5 d10 e5, PS) | 57% | 93% | – | –
21 | AAGGCACCCAGGCCCATGAT (sugars e5 d10 e5, PS) | – | – | – | 46%
22 | TTCCTGGTGGTCAGCAGGTT (sugars e5 d10 e5, PS) | – | – | – | 61%
23 | GGCAAAGTAACATACCTGCT (sugars e5 d10 e5, PS) | 72% and 91% | 94% | – | –

Row | Sequence | target mRNA inhibition (HepG2, 2.5 µM) | target mRNA inhibition (HepG2, 10 µM) | target mRNA inhibition (HepG2, 20 µM) | target mRNA inhibition (HepG2, 0.12 µM)
24 | GCTCAGCACTGACATGGTAA (sugars e5 d10 e5, PS) | 79% and 66% | 96% and 92% | – | –
25 | GAGGCCAAGGACAGAGGTTC (sugars e5 d10 e5, PS) | 66% | 81% | – | –
26 | TCTCGAATATCCCTAATAAC (sugars e5 d10 e5, PS) | 34% | 87% | – | –
27 | TGGTCAGCAGGTTGTGTGTC (sugars e5 d10 e5, PS) | 19% | 72% | 83% | 55% and 43%
28 | CTCTGCTTCTTGGGCATCTG (sugars e5 d10 e5, PS) | 78% and 70% | 90% and 85% | – | –
29 | AACCAACTCTCAGCTACTCC (sugars e5 d10 e5, PS) | 82% and 71% | 93% and 97% | – | –
30 | GCTTGGAGTAGGGCACCAGC (sugars e5 d10 e5, PS) | – | – | – | 45%
31 | GCTCACTTCTGTGGCCTCTG (sugars e5 d10 e5, PS) | – | – | – | 41%
32 | CACCAGCTGGATGGGAAAGT (sugars e5 d10 e5, PS) | – | – | – | 31%
33 | CCACTCCCATTCTTTGAAAG (sugars e5 d10 e5, PS) | – | – | – | 34%
34 | TGGCTTCCTCAGGGCCCACC (sugars e5 d10 e5, PS) | 79% | 87% | – | –
35 | TTTCCTTCTTAAAAAAGACC (sugars e5 d10 e5, PS) | – | – | – | 9%
36 | GTGCAAGAGTTACCTCCTCC (sugars e5 d10 e5, PS) | 80% and 78% | 94% and 92% | – | –
37 | GTAAGGGTATTCTGCTCATA (sugars e5 d10 e5, PS) | – | 86% and 95% | – | –
38 | TTTCCTTTGAAATCCAATGC (sugars e5 d10 e5, PS) | 69% | 90% | – | –
39 | GGTGGGAAACTTGGAAACTT (sugars e5 d10 e5, PS) | – | – | – | 37%
40 | CCTCGAAGATCACCTGCTTG (sugars e5 d10 e5, PS) | – | – | – | 53%
41 | GCCAATGCCTAGGTCAC (sugars e3 d10 e4, PS) | 85% and 93% | 79% and 93% | – | –
42 | TCAGCCTAGAGGCCCTGGAC (sugars e5 d10 e5, PS) | – | – | – | 26%
43 | GGTCAGCAGGTTGTGTGTCT (sugars e2 d13 e5, PS) | – | – | – | 45%
44 | TGCGCGATTCACTGAGGACC (sugars e5 d10 e5, PS) | 51% | 87% | – | –
45 | TGCAGCTTGGAGGAGGAGTA (sugars e5 d10 e5, PS) | – | – | – | 36%
46 | ATCCATGTCAGAGAGGCTCA (sugars e5 d10 e5, PS) | 66% | 88% | – | –

Row | Sequence | target mRNA inhibition (HepG2, 2.5 µM) | target mRNA inhibition (HepG2, 10 µM) | target mRNA inhibition (HepG2, 20 µM) | target mRNA inhibition (HepG2, 0.12 µM)
47 | CAGGACCCCGGAGTAGGCGG (sugars e3 d14 e3, PS) | – | – | – | 53%
48 | CACAGTTAAAGTGTGGTACA (sugars e5 d10 e5, PS) | 52% | 88% | – | –
49 | GAAAGTAGTCTCGAAAGTAG (sugars e5 d10 e5, PS) | – | – | – | 0%
50 | GTCTCTCATAATTGCCAGTT (sugars e5 d10 e5, PS) | 53% and 66% | 83% and 87% | – | –
51 | ACACGCAGACCAGGACAGCT (sugars e5 d10 e5, PS) | – | – | – | 46%
52 | TCAGAGACTCAGCCGCACCC (sugars e3 d14 e3, PS) | – | – | – | 41%
53 | AGGATGCAGGGTTACCCAGC (sugars e5 d10 e5, PS) | 81% | 71% | – | –
54 | AGGGCCAGTTTCACAAAGCC (sugars e5 d10 e5, PS) | – | – | – | 33%
55 | GGTTATTGCAACCACTAGGA (sugars e5 d10 e5, PS) | 80% | 91% | – | –
56 | CCAACTCCTCCCCTTGGCAG (sugars e5 d10 e5, PS) | – | – | – | 28%
57 | GATGGCAACCTAAGGAGTGA (sugars e5 d10 e5, PS) | – | – | – | 37%
58 | TGACCAGGAAGGCCACACCT (sugars e5 d10 e5, PS) | – | – | – | 15%
59 | GACCTTGGGCAAGTTACCTA (sugars e5 d10 e5, PS) | 50% and 71% | 89% and 94% | – | –
60 | GTCAGCAGGTTGTGTGTCTT (sugars e2 d13 e5, PS) | – | – | – | 58%
61 | CAAGAGGTAAGGCCAAGGAA (sugars e5 d10 e5, PS) | 75% | 90% | – | –
62 | TCACCTGCTTGTACACTTCA (sugars e5 d10 e5, PS) | – | – | – | 40%
63 | TCAGCAGGTTGTGTGTCTTC (sugars e3 d14 e3, PS) | – | – | – | 54%
64 | ACCACTGTTGCTGAGCTCAT (sugars e5 d10 e5, PS) | 67% | 90% | – | –
65 | GTAGACTCTCCATGAGCCTA (sugars e5 d10 e5, PS) | 49% | 88% | – | –
66 | AGGCAAAGTAACATACCTGC (sugars e5 d10 e5, PS) | 71% and 74% | 94% and 91% | – | –
67 | GAGCTTCACCAGGGCCTCCA (sugars e5 d10 e5, PS) | – | 74% and 79% | 83% and 88% | 52%
68 | TCCAATGCACCTTGTATTAA (sugars e5 d10 e5, PS) | 72% and 52% | 92% and 83% | – | –
69 | TTGAAAGCAAATAGTCTATG (sugars e5 d10 e5, PS) | – | – | – | 42%

Row | Sequence | target mRNA inhibition (HepG2, 2.5 µM) | target mRNA inhibition (HepG2, 10 µM) | target mRNA inhibition (HepG2, 20 µM) | target mRNA inhibition (HepG2, 0.12 µM)
70 | GTCTTCACCAGCTGGATGGG (sugars e5 d10 e5, PS) | – | – | – | 42%
71 | TCAGAGACTCAGCCGCACCC (sugars e2 d13 e5, PS) | – | – | – | 56%
72 | ATCCTGCCAGAGTTATCCTC (sugars e5 d10 e5, PS) | 86% | 77% | – | –
73 | GCCAGGTAAGGCCGTATGCC (sugars e3 d14 e3, PS) | – | – | – | 61%
74 | GTGTCTTCACCAGCTGGATG (sugars e5 d10 e5, PS) | 16% | – | – | 49%
75 | ACCCACTGGAGCACTGAGAT (sugars e3 d14 e3, PS) | – | – | – | 59%
76 | AGCTGTGATGACTTCCCAGG (sugars e5 d10 e5, PS) | 52% | 91% | – | –
77 | TGGTCAGCAGGTTGTGTGTC (sugars e2 d13 e5, PS) | – | – | – | 57%
78 | TCCTGGTCCCAGTACTTTCT (sugars e5 d10 e5, PS) | 71% and 73% | 91% and 92% | – | –
79 | TCTCATGCTAGGTCCTGTGC (sugars e5 d10 e5, PS) | 89% and 74% | 90% and 88% | – | –
80 | ACCAGGGCCTCCATGTACAT (sugars e3 d14 e3, PS) | 27% and 24% | 63% and 50% | 26% | 84%
81 | TCACCAGGGCCTCCATGTAC (sugars e2 d13 e5, PS) | – | – | – | 3%
82 | CCACTGGAGCACTGAGATGA (sugars e2 d13 e5, PS) | – | – | – | 54%
83 | GTGTCGGAGGAGAAGAGGCC (sugars e5 d10 e5, PS) | – | – | – | 52%
84 | GGCACCTGTTACTACATGTC (sugars e5 d10 e5, PS) | 80% and 75% | 94% and 89% | – | –
85 | CTTAAGGCAAAGTAACATAC (sugars e5 d10 e5, PS) | 48% and 57% | 75% and 96% | – | –
86 | AGGGTTCATGGATCCCC (sugars e3 d10 e4, PS) | 46% | 76% | – | –
87 | AGCATTGCCACTCCCATTCT (sugars e5 d10 e5, PS) | – | – | – | 74%
88 | GCAGGACCCCGGAGTAGGCG (sugars e2 d13 e5, PS) | – | – | – | 68%
89 | AAAAACATGACAGCCAGGGT (sugars e5 d10 e5, PS) | – | – | – | 31%
